Source: publication PMC9445081, “Structural basis for recognition of N-formyl peptides as pathogen-associated molecular patterns” (Nature Communications, 2022)
Residue numbers refer to the chain shown, from its start.

Legend:
Assay type in all cases: cell-based
FPR1 R201A = molecular target: T1, FPR1 R201A (Homo sapiens, UniProt P21462, R201A); assay: cAMP inhibition assay, FPR1 R201A
T1 construct: expressed in transfected cells; host or cells: HeLa cells, transient, pcDNA3.1(+)
T1 sequence (P21462 1-350 R201A): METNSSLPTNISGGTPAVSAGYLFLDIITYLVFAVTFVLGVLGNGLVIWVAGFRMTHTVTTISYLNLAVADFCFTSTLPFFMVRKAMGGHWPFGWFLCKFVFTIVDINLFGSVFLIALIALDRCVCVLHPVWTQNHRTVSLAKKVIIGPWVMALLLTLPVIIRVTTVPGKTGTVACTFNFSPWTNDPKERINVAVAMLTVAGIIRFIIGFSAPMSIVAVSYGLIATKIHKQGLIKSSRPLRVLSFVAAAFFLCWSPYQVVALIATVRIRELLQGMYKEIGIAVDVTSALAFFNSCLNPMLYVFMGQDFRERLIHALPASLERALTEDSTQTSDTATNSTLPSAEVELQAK
Description: (§1) FPR1 cDNA in the pcDNA3.1(+) vector (Invitrogen) was used as a template for gene manipulation. The mutations of FPR1 were introduced in the receptor through overlap extension PCR with elaborately designed primers (GENEWIZ, Suzhou, China). The sequences of the primers were listed in Supplementary Table 2. Two fragments of FPR1 (separated at mutated positions) were assembled into pre-cut pcDNA3.1(+) vectors with the ClonExpress Ultra One Step Cloning Kit (Vazyme Biotech, C115). Plasmids with FPR1 mutations were confirmed by DNA sequencing (GENEWIZ).
(§2) For functional studies, FPR1 and its mutants were expressed in HeLa cells as above. The cells were resuspended in HBSS buffer plus 5 mM HEPES, 0.1% BSA (w/v) and 0.5 mM 3-isobutyl-1-methylxanthine and seeded into 384-well plates. […] AG-14 was synthesized by Sungening Biotechnology (Shenzhen, China). […] Intracellular cAMP levels were measured with the LANCE Ultra cAMP kit (PerkinElmer, TRF0263) following the manufacturer’s instructions. […] Intracellular cAMP levels were calculated according to the TR-FRET signals of the samples and cAMP standards.
(§3) The data were analyzed with Prism 6.0 (GraphPad, San Diego, CA). […] For cell surface expression, data points were presented as the percentages (mean ± SEM) of the flow cytometry fluorescence signals of WT FPR1. […]

FPR1 W254A = molecular target: T2, FPR1 W254A (Homo sapiens, UniProt P21462, W254A); assay: cAMP inhibition assay, FPR1 W254A; settings: inhibiting forskolin-elevated cAMP, HeLa cells, read-out: pEC50, mean ± SEM (converted)
T2 construct: expressed in transfected cells; host or cells: HeLa cells, transient, pcDNA3.1(+)
T2 sequence (P21462 1-350 W254A): T1 sequence (P21462 1-350 R201A) with A201R, W254A
Description: as §1, §2, §3

FPR1 Y257A = molecular target: T3, FPR1 Y257A (Homo sapiens, UniProt P21462, Y257A); assay: cAMP inhibition assay, FPR1 Y257A; settings: inhibiting forskolin-elevated cAMP, HeLa cells, read-out: pEC50, mean ± SEM (converted)
T3 construct: expressed in transfected cells; host or cells: HeLa cells, transient, pcDNA3.1(+)
T3 sequence (P21462 1-350 Y257A): T1 sequence (P21462 1-350 R201A) with A201R, Y257A
Description: as §1, §2, §3

FPR1 WT = molecular target: T4, FPR1 WT (Homo sapiens, UniProt P21462); assay: cAMP inhibition assay, WT FPR1
T4 construct: expressed in transfected cells; host or cells: HeLa cells, transient, pcDNA3.1(+)
T4 sequence (P21462 1-350): T1 sequence (P21462 1-350 R201A) with A201R
Description: as §1, §2, §3

FPR1 R84A = molecular target: T5, FPR1 R84A (Homo sapiens, UniProt P21462, R84A); assay: cAMP inhibition assay, FPR1 R84A; settings: inhibiting forskolin-elevated cAMP, HeLa cells, read-out: pEC50, mean ± SEM (converted)
T5 construct: expressed in transfected cells; host or cells: HeLa cells, transient, pcDNA3.1(+)
T5 sequence (P21462 1-350 R84A): T1 sequence (P21462 1-350 R201A) with R84A, A201R
Description: as §1
as §2, with “China). Different concentrations of the ligands were prepared plus a fixed dose of forskolin with the buffer above.” for “China).”
(§4) The data were analyzed with Prism 6.0 (GraphPad, San Diego, CA). For dose-response analysis, the curves were plotted with the log[agonist] vs. response equation (three parameters) in the software. Data points were presented as the percentages (mean ± SEM) of the maximal cAMP level for each construct, from at least three independent experiments, as indicated in figure legends. The pEC50 values were the negative logarithm of the EC50 values, which were obtained from the dose-response curves. For cell surface expression, data points were presented as the percentages (mean ± SEM) of the flow cytometry fluorescence signals of WT FPR1. For statistical comparison, a p-value of 0.05 or lower is considered statistically significant.

FPR1 F291A = molecular target: T6, FPR1 F291A (Homo sapiens, UniProt P21462, F291A); assay: cAMP inhibition assay, FPR1 F291A
T6 construct: expressed in transfected cells; host or cells: HeLa cells, transient, pcDNA3.1(+)
T6 sequence (P21462 1-350 F291A): T1 sequence (P21462 1-350 R201A) with A201R, F291A
Description: as §1
as §2, with “China). Different concentrations of the ligands were prepared plus a fixed dose of forskolin with the buffer above.” for “China).”
as §4

FPR1 R205A = molecular target: T7, FPR1 R205A (Homo sapiens, UniProt P21462, R205A); assay: cAMP inhibition assay, FPR1 R205A
T7 construct: expressed in transfected cells; host or cells: HeLa cells, transient, pcDNA3.1(+)
T7 sequence (P21462 1-350 R205A): T1 sequence (P21462 1-350 R201A) with A201R, R205A
Description: as §1
as §2, with “China). Different concentrations of the ligands were prepared plus a fixed dose of forskolin with the buffer above.” for “China).”
as §4

Work on `COc1cc(/C=N/NC(=O)c2ccc3c(c2)OCO3)ccc1OCc1ccccc1` [AG-14] yielded an EC50 (FPR1 R201A) of 1580 nM, an EC50 (FPR1 W254A) of 5010 nM and an EC50 (FPR1 Y257A) of 2510 nM. The EC50 (FPR1 WT) was 398 nM, the EC50 (FPR1 R84A) was 1260 nM and the EC50 (FPR1 F291A) was 2000 nM. The EC50 (FPR1 R205A) was 1000 nM.
